According to patent US7868028B2 (priority 2002, dated 2011):
pIC50, pKd: −log10 of the molar value. Values joined by “and” are separate entries in the source; they are usually repeats but may differ in a detail not shown here. Equal entries are not always repeated. Where two headings read alike, the source gives them in different places.

Tests used:
Male Sprague-Dawley rats = settings: rat, in vivo; note: test concentration or dose not given here
[1] = tested on: voltage-gated sodium channel (site 1, [3H]Saxitoxin binding); design: species or system rat; for % inhibition: test concentration or dose not given here
[2] = biological target: voltage-gated sodium channel; settings: cited from earlier work

Compound | Average % MPE 5 minutes (Male Sprague-Dawley rats) [% MPE] | Average % MPE Day 4 (Male Sprague-Dawley rats) [% MPE] | % inhibition [1] [%] | pIC50 [1] | Average % MPE 5 minutes (Male Sprague-Dawley rats; hydrobromide) | pKd [2]
CCCCn1c(=N)n(CC(O)COc2ccc(Cl)cc2)c2ccccc21.Cl (racemic) [Compound 10] | 26 | 19 | 42 | 4.02 |  | 
Cl.N=c1n(CCN2CCCCC2)c2ccccc2n1CC(O)COc1ccccc1 (racemic) [Compound 22] | 100 |  | 14 | 3.68 |  | 
Br.N=c1n(Cc2ccc(F)cc2)c2ccccc2n1CC(O)COc1ccccc1 (racemic) [Compound 70] | 83 | 4 | 26 | 4.01 |  | 
Br.COc1ccc(Cn2c(=N)n(CC(O)COc3ccccc3)c3ccccc32)cc1 (racemic) [Compound 78] | 11 | −4 | 17 | 4.17 |  | 
Cl.N=c1n(Cc2ccccc2)c2ccccc2n1CC(O)COc1ccc(Cl)cc1 (stereo not drawn) [Compound 1] | 100 | 3 | 59 | 4.82 |  | 
Br.N=c1n(Cc2ccccc2)c2ccccc2n1CC(O)COc1ccccc1 (stereo not drawn) [Compound 3, 1-benzyl-2-imino-3-(2-hydroxy-3-phenoxypropyl)benzimidazole hydrobromide] |  |  | 52 | 4.68 | 76 % MPE and 100 % MPE | 
Cl.N=c1n(Cc2ccccc2)c2ccccc2n1CC(O)c1ccc(Cl)cc1 (stereo not drawn) [Compound 7] | 100 | 32 | 51 | 4.22 |  | 
CCn1c(=N)n(CC(O)c2ccc(Cl)c(Cl)c2)c2ccccc21.Cl (stereo not drawn) [Compound 9] | 100 | 34 | 46 | 4.05 |  | 
Cc1ccc(Cn2c(=N)n(CC(O)c3ccc(Cl)c(Cl)c3)c3ccccc32)cc1.Cl (stereo not drawn) [Compound 11] | 34 | 18 | 48 | 3.81 |  | 
Br.N=c1n(Cc2ccccc2)c2ccccc2n1CC(O)COCc1ccccc1 (stereo not drawn) [Compound 71] | 100 | 2 | 34 | 4.52 |  | 
NC1=N[C@H](O)[C@H]2[C@H]3O[C@]4(O)O[C@@H]([C@@H](O)[C@@]2(N1)[C@@H]4O)[C@]3(O)CO [TTX, tetrodotoxin] |  |  |  |  |  | 8.30 to 8.52
